The test system of one data set is Vero34 cells. It counts as cell-based. As to conditions: African green monkey, 48 h. Here is the method: The CD50 value (cytotoxic dose at 50%) was assessed on virus-free control layers of cells to assess the toxicity of the compounds.
Flat bottom 96 well plates were plated with 5×1OE3 Vero-34 cells/well and 1×10E4 Hs-68 or Wi-38 cells/well respectively and incubated overnight at 37° C. and 5% CO2/air. After incubation, the supernatant medium was removed and replaced with test compound dilutions in 2% DMEM (150 ul). The cells were then incubated 48 hours in a 5% CO2 incubator at 37° C.
50 μl/well of 10 uCi/ml solution of [3H]-methyl thymidine (specific activity of approx. 2 Ci/mmol) was added to the culture medium and incubated overnight (18 hours) in a 5% CO2 incubator at 37° C.
Cells were then collected onto a fiberglass filter (Printed Filtermat A 1450-421 Wallac) with a Tomtec cell harvester. Suspended cells were collected directly onto filter while for adherent cells, the medium was first removed, then the cells washed with PBS and trypsinized for 2-3 minutes (50 μl trypsin/well) before collecting.
Filters were dried for 1 hour at 37-40° C. and then placed into bags (1450-microbeta #1450-432 Wallac) with 4.5 ml of Betascint and counts obtained with Microbeta 1450 Wallac (protocol 1).
(§1) The percent of cell proliferation was determined by comparison to the control (no test compound) and thereby establishing 50% inhibitory concentration is established.

A further data set relates to HSV-1. Put plainly: Herpes simplex virus plaque reduction assay in Vero34 cells. As to conditions: Human alphaherpesvirus 1, 72 h, 3 days. It counts as cell-based. Here is the method:
In 12 wells tissue culture dishes, 2×10^5 Vero34 cells were seeded in 2 mls of DMEM supplemented with 10% […]. The plate was incubated in 5% CO2/air at 37° C. overnight. The medium was removed and cells were inoculated with 200 PFU of HSV-1 diluted in a final volume of 0.5 ml DMEM supplemented with 2% FES. After adsorption at 37° C. for 1 hour, the viruses were removed and the cell monolayers were overlaid with 1 ml of DMEM-2% FES containing the test compound at final concentrations of 0.1, 1.0, 10, and 50 ug/ml. Acyclovir was used as a positive control. Uninfected and infected untreated monolayers were also included in the assay as controls. All compounds were tested in duplicates. After an incubation at 37° C. in 5% CO2/air for 3 days, cells were fixed with the addition of one volume of formaldehyde 8%/water for 30 min. The formaldehyde/medium was removed and the monolayers were stained with crystal violet 2%/ethanol 20% for few sec. The cells were rinsed with tap water and the monolayers were examined for the presence of plaques under a microscope.
For orientation: Plaque reduction counts the foci of infection that form in a cell layer.

Another data set has as its system RSV and CMV viruses. Put plainly: Case report: immune suppressed leukemia patient with RSV and CMV pneumonias in troxacitabine phase I study. It counts as in vivo, human. As to conditions: one elderly patient with relapsed resistant acute myeloid leukemia, also treated for RSV and CMV infections. Here is the method: An elderly patient with relapsed resistant acute myeloid leukemia was entered in a troxacitabine (compound #1) as phase I Leukemia study. In the early part of the therapy, the patient, known to be immune suppressed, developed severe pneumonias. […] The patient to was maintained in the troxacitabine study and was treated for RSV and CMV viral infections.

Another data set deals with HCMV. Put plainly: CMV plaque reduction assay in Hs68 cells. The class given is cell-based, human cytomegalovirus. As to conditions: 8 days, read-out: HCMV-1 IC50. Here is the method: In 12-well tissue culture dishes, 1.5×10E5 or Hs68 cells (human […] fibroblast cell line) were plated per well with 2 ml of DMEM 10% fetal bovine serum and incubated in 5% CO2/air at 37° C. overnight or until cells were ready. The medium was then removed and the cells inoculated with 0.5 ml (containing 200 pfu/ml diluted in DMEM 2% FBS) of HCMV virus in each well. After adsorption at 37° C. for 2 hours, the virus was removed and cell monolayers were overlaid (1 ml) with DMEM 2% FBS containing test compounds at various concentrations. The cells were then incubated at 37° C. for 8 days, and then fixed with one volume (1 ml) of formaldehyde 8%/water or PBS 1× for 30 minutes. The formaldehyde solution was removed and the cell monolayers were stained with crystal violet 2%/EtOH 20% for a few seconds and then rinsed with water. Monolayers were examined for the presence of plaques under a microscope, the percentage of plaque reduction determined for each compound by comparison with the untreated cells (no test compound) and the 50% inhibitory concentration (IC50) established. DHPG was used as a positive control. Note: DMEM medium contained 1% glutamine and 1% pen/strep

The test system of another data set is Hs68 cells. Put plainly: Toxicity (CD50) reported with the CMV assay. It counts as cell-based, human. As to conditions: reported with HCMV assay. Here is the method: Cells were then collected onto a fiberglass filter (Printed Filtermat A 1450-421 Wallac) with a Tomtec cell harvester.
as §1

Read-outs that look alike come from different tables or passages of the source.

For `Nc1nc2c(ncn2COCCO)c(=O)[nH]1` [ACYCLOVIR, reference compound], in the data set on Vero34 cells, the “toxicity CD50” value is greater than 13.3 µM. Moreover, in the data set with HSV-1, the IC50 (usually the point on the concentration scale where inhibition reaches its midpoint) is 13.3 µM.

Regarding `Nc1ccn([C@@H]2CO[C@H](CO)O2)c(=O)n1` [COMPOUND #1, (−)-cis-2-Hydroxymethyl-4-(cytosin-1′-yl)-1,3-dioxolane], the “Clinical outcome of viral pneumonias (RSV and CMV)” value in the data set with RSV and CMV viruses is given as “did recover from their pneumonias”. The 50% inhibitory concentration (IC50) in the data set with HCMV (Human betaherpesvirus 5, 192 h) was 0.7 µM; in the data set on HSV-1, 1.7 µM. Further, the “toxicity CD50” value in the data set with Vero34 cells and in the data set on Hs68 cells was greater than 50 µM throughout.

`Nc1ncn([C@@H]2CO[C@H](CO)O2)c(=O)n1` [COMPOUND #3, (−)cis-2-Hydroxymethyl-4-(5′-azacytosin-1′-yl)-1,3-Dioxolane]: in the data set on HSV-1, the IC50 lay in the range of 47 to 234 µM.

On to `Nc1nc2c(ncn2COC(CO)CO)c(=O)[nH]1` [DHPG, reference compound], for which the IC50 with HCMV worked out at 9.8 µM.

(Values after patent US6583149B1, “Method for the treatment or prevention of viral infection using nucleoside analogues” (BioChem Pharma Inc., priority 1999, dated 2003).)
